For 14 compounds, selectivity ratio, CC50 and EC50 results are on record in ChEMBL document CHEMBL5137021, “Organotropic dendrons with high potency as HIV-1, HIV-2 and EV-A71 cell entry inhibitors” (Eur J Med Chem, 2022).

What is called CC50 is the concentration at which the toxic effect on the cells reaches its halfway point. By EC50 is commonly meant the concentration giving half of the maximal effect.

Data set [1] is described as follows: Selectivity index, ratio of CC50 for human RD cells to EC50 for antiviral activity against EV-A71. The note with it: read-out: Ratio CC50/EC50. Type of data set: toxicity.
Data set [2] can be described thus: Cytotoxicity against human RD cells assessed as cell viability measured after 5 days by MTS assay. Conditions: time 5 day. Type of data set: toxicity, cell-based. On the technique in general: Tetrazolium dyes change colour on reduction, which living cells bring about.
The subject of data set [3] is Enterovirus A71. The data set can be described thus: Antiviral activity against Enterovirus A71 BrCr harboring VP1_P246S mutant infected in RD cells assessed as protection against virus induced cytopatheic effect measured after 5 days by MTS assay. The data set is classed as functional, organism-based.
For data set [4], the system named is Human immunodeficiency virus 2. The data set can be described thus: Antiviral activity against HIV2 ROD infected in human MT4 cells assessed as protection against virus induced cytopatheic effect measured after 5 days by MTS assay. Type of data set: functional, organism-based. Conditions: Human immunodeficiency virus 2, ROD, MT4, 120 h.
For data set [5], the system named is Human immunodeficiency virus 1. The data set can be described thus: Antiviral activity against HIV1 NL4-3 infected in human MT4 cells assessed as protection against virus induced cytopatheic effect measured after 5 days by MTS assay. The data set is classed as functional, organism-based. Conditions: Human immunodeficiency virus 1, NL4-3, MT4, 120 h.
Data set [6] is described as follows: Selectivity index, ratio of CC50 for human MT4 cells to EC50 for antiviral activity against HIV-1 NL4.3. Type of data set: toxicity. The note with it: read-out: Ratio CC50/EC50.
The subject of data set [7] is Enterovirus A71. The data set can be described thus: Antiviral activity against Enterovirus A71 BrCr harboring VP1_S184T mutant infected in RD cells assessed as protection against virus induced cytopatheic effect measured after 5 days by MTS assay. The data set is classed as functional, organism-based.
The test system of data set [8] is Enterovirus A71. The data set can be described thus: Antiviral activity against Enterovirus A71 BrCr harboring VP1_S184T_P246S mutant infected in RD cells assessed as protection against virus induced cytopatheic effect measured after 5 days by MTS assay. Type of data set: functional, organism-based.
The test system of data set [9] is Enterovirus A71. The data set can be described thus: Antiviral activity against EV-A71 infected in RD cells assessed as protection against virus induced cytopatheic effect measured after 5 days by MTS assay. Type of data set: functional, organism-based. The note with it: Enterovirus A, 120 h.
For data set [10], the system named is Enterovirus A71. The data set can be described thus: Antiviral activity against EV-A71 genotype A BrCr infected in RD cells assessed as protection against virus induced cytopatheic effect measured after 5 days by MTS assay. The data set is classed as functional, organism-based. The note with it: 120 h.
Data set [11] in a line: Cytotoxicity against human MT4 cells assessed as cell viability measured after 5 days by MTS assay. The note with it: time 5 day. Type of data set: toxicity, cell-based.

Turning to `O=C(CCC(CCC(=O)NC(Cc1c(-c2cc(C(=O)O)cc(C(=O)O)c2)[nH]c2ccccc12)C(=O)O)(CCC(=O)NC(Cc1c(-c2cc(C(=O)O)cc(C(=O)O)c2)[nH]c2ccccc12)C(=O)O)[N+](=O)[O-])NC(Cc1c(-c2cc(C(=O)O)cc(C(=O)O)c2)[nH]c2ccccc12)C(=O)O` (stereo not given), the selectivity ratio in [1] was more than 103; in [6] it was more than 370. Moreover, the figures for the 50% cytotoxic concentration (CC50) at 120 h in data set [2] and in [11] were more than 75 µM and more than 100 µM, respectively. In addition, the EC50 in [3] turned out to be 1.9 µM; in [4], 630 nM; in [5] it was 270 nM; in data set [7], 2300 nM; in [8], 2.2 µM; in data set [9], 350 nM. In [10], the concentration for a half-maximal effect (EC50) turned out to be 353 nM.
With `NC(CCC(=O)NC(Cc1c(-c2cc(C(=O)O)cc(C(=O)O)c2)[nH]c2ccccc12)C(=O)O)(CCC(=O)NC(Cc1c(-c2cc(C(=O)O)cc(C(=O)O)c2)[nH]c2ccccc12)C(=O)O)CCC(=O)NC(Cc1c(-c2cc(C(=O)O)cc(C(=O)O)c2)[nH]c2ccccc12)C(=O)O` (stereo not given), the selectivity ratio in data set [1] was more than 133; in data set [6], more than 109. Also, the half-maximal cytotoxic concentration (CC50) at 120 h in data set [2] was more than 100 µM; in [11], more than 50 µM. Further, the concentration for a half-maximal effect (EC50) in [4] is 100 nM; in data set [5], 460 nM; in data set [9] it was 750 nM.
Turning to `O=C(CCC(CCC(=O)NC(Cc1c(-c2cc(C(=O)O)cc(C(=O)O)c2)[nH]c2ccccc12)C(=O)O)(CCC(=O)NC(Cc1c(-c2cc(C(=O)O)cc(C(=O)O)c2)[nH]c2ccccc12)C(=O)O)NC(=O)Nc1ccc2c(c1)Cc1ccccc1-2)NC(Cc1c(-c2cc(C(=O)O)cc(C(=O)O)c2)[nH]c2ccccc12)C(=O)O` (stereo not given), the selectivity ratio was more than 400 in data set [1] and more than 1670 in data set [6]. In addition, the CC50 at 120 h in data set [2] and in [11] was more than 100 µM throughout. In addition, the results for the half-maximal effective concentration (EC50) in data set [4], in data set [5] and in [9] were 50 nM, 60 nM and 250 nM, respectively.
Regarding `O=C(CCC(CCC(=O)NC(Cc1c(-c2cc(C(=O)O)cc(C(=O)O)c2)[nH]c2ccccc12)C(=O)O)(CCC(=O)NC(Cc1c(-c2cc(C(=O)O)cc(C(=O)O)c2)[nH]c2ccccc12)C(=O)O)NC(=O)Nc1ccc2ccccc2c1)NC(Cc1c(-c2cc(C(=O)O)cc(C(=O)O)c2)[nH]c2ccccc12)C(=O)O` (stereo not given), the selectivity ratio was more than 70 in data set [1] and more than 263 in data set [6]. Moreover, the CC50 at 120 h in data set [2] was more than 68 µM; in [11], more than 100 µM. The concentration for a half-maximal effect (EC50) came out at 220 nM in data set [4], 380 nM in [5] and 970 nM in data set [9].
As for `O=C(CCC(CCC(=O)NC(Cc1c(-c2cc(C(=O)O)cc(C(=O)O)c2)[nH]c2ccccc12)C(=O)O)(CCC(=O)NC(Cc1c(-c2cc(C(=O)O)cc(C(=O)O)c2)[nH]c2ccccc12)C(=O)O)NC(=O)CCCCNC(=O)Nc1cc(C(=O)O)cc(C(=O)O)c1)NC(Cc1c(-c2cc(C(=O)O)cc(C(=O)O)c2)[nH]c2ccccc12)C(=O)O` (stereo not given), the selectivity ratio in data set [1] is more than 2000; in data set [6], more than 500. In addition, the figures for the CC50 at 120 h in data set [2] and in [11] were more than 300 µM and more than 100 µM, respectively. Further, the EC50 in [4] was determined as 40 nM; in data set [5] it was 200 nM; in data set [9] it was 150 nM.
As for `O=C(CCC(CCC(=O)N[C@@H](Cc1c[nH]c2ccccc12)C(=O)O)(CCC(=O)N[C@@H](Cc1c[nH]c2ccccc12)C(=O)O)NC(=O)CCOCC(COCCC(=O)NC(CCC(=O)N[C@@H](Cc1c[nH]c2ccccc12)C(=O)O)(CCC(=O)N[C@@H](Cc1c[nH]c2ccccc12)C(=O)O)CCC(=O)N[C@@H](Cc1c[nH]c2ccccc12)C(=O)O)(COCCC(=O)NC(CCC(=O)N[C@@H](Cc1c[nH]c2ccccc12)C(=O)O)(CCC(=O)N[C@@H](Cc1c[nH]c2ccccc12)C(=O)O)CCC(=O)N[C@@H](Cc1c[nH]c2ccccc12)C(=O)O)COCCC(=O)NC(CCC(=O)N[C@@H](Cc1c[nH]c2ccccc12)C(=O)O)(CCC(=O)N[C@@H](Cc1c[nH]c2ccccc12)C(=O)O)CCC(=O)N[C@@H](Cc1c[nH]c2ccccc12)C(=O)O)N[C@@H](Cc1cc2ccccc2[nH]1)C(=O)O`, the selectivity ratio is more than 203 in data set [1] and more than 43 in [6]. The CC50 at 120 h was 25 µM in data set [2] and more than 100 µM in [11]. The EC50 in [3] stood at 4.7 µM; in data set [4], 6600 nM; in data set [5], 2300 nM; in data set [7] it was 2000 nM; in [8] it was 8.9 µM; in [9], 300 nM.
`O=C(CCC(CCC(=O)NC(Cc1c(-c2cc(C(=O)O)cc(C(=O)O)c2)[nH]c2ccccc12)C(=O)O)(CCC(=O)NC(Cc1c(-c2cc(C(=O)O)cc(C(=O)O)c2)[nH]c2ccccc12)C(=O)O)NC(=O)CCCCCCNC(=O)c1cc(O)c2c(c1)C(=O)c1cccc(O)c1C2=O)NC(Cc1c(-c2cc(C(=O)O)cc(C(=O)O)c2)[nH]c2ccccc12)C(=O)O` (stereo not given): the selectivity ratio is more than 69 in data set [1] and more than 32 in data set [6]. The CC50 at 120 h in data set [2] and in data set [11] was more than 100 µM in each case. Besides, the half-maximal effective concentration (EC50) is 710 nM in data set [4], 3110 nM in data set [5] and 1430 nM in data set [9].
With `O=C(CCC(CCC(=O)NC(Cc1c(-c2cc(C(=O)O)cc(C(=O)O)c2)[nH]c2ccccc12)C(=O)O)(CCC(=O)NC(Cc1c(-c2cc(C(=O)O)cc(C(=O)O)c2)[nH]c2ccccc12)C(=O)O)NC(=O)Nc1cccc(C(=O)O)c1)NC(Cc1c(-c2cc(C(=O)O)cc(C(=O)O)c2)[nH]c2ccccc12)C(=O)O` (stereo not given), the selectivity ratio was more than 142 in [1] and more than 141 in [6]. Further, the cytotoxic concentration (CC50) at 120 h is more than 68 µM in data set [2] and more than 100 µM in [11]. Further, the EC50 worked out at 110 nM in data set [4], 710 nM in data set [5] and 480 nM in [9].
As to `O=C(CCC(CCC(=O)NC(Cc1c(-c2cc(C(=O)O)cc(C(=O)O)c2)[nH]c2ccccc12)C(=O)O)(CCC(=O)NC(Cc1c(-c2cc(C(=O)O)cc(C(=O)O)c2)[nH]c2ccccc12)C(=O)O)NC(=O)CCCCCCCCCCNC(=O)Nc1cc(C(=O)O)cc(C(=O)O)c1)NC(Cc1c(-c2cc(C(=O)O)cc(C(=O)O)c2)[nH]c2ccccc12)C(=O)O` (stereo not given), the selectivity ratio in [1] is more than 72; in data set [6] it was more than 25. Moreover, the CC50 at 120 h in data set [2] and in [11] was more than 100 µM each time. In addition, the values for the EC50 in data set [4], in [5] and in data set [9] were 960 nM, 3990 nM and 1380 nM, respectively.
With `O=C(CCC(CCC(=O)NC(Cc1c(-c2cc(C(=O)O)cc(C(=O)O)c2)[nH]c2ccccc12)C(=O)O)(CCC(=O)NC(Cc1c(-c2cc(C(=O)O)cc(C(=O)O)c2)[nH]c2ccccc12)C(=O)O)NC(=O)COCCOCCNc1ccc([N+](=O)[O-])cc1[N+](=O)[O-])NC(=O)Cc1c(-c2cc(C(=O)O)cc(C(=O)O)c2)[nH]c2ccccc12` (stereo not given), the selectivity ratio is more than 103 in [1] and more than 12 in data set [6]. The CC50 at 120 h in [2] and in [11] was more than 100 µM each time. In addition, the concentration for a half-maximal effect (EC50) in data set [4] was 560 nM; in [5] it was 8390 nM; in data set [9] it was 970 nM.
On to `O=C(CCC(CCC(=O)NC(Cc1c(-c2cc(C(=O)O)cc(C(=O)O)c2)[nH]c2ccccc12)C(=O)O)(CCC(=O)NC(Cc1c(-c2cc(C(=O)O)cc(C(=O)O)c2)[nH]c2ccccc12)C(=O)O)NC(=O)CCCCNc1ccc([N+](=O)[O-])cc1[N+](=O)[O-])NC(Cc1c(-c2cc(C(=O)O)cc(C(=O)O)c2)[nH]c2ccccc12)C(=O)O` (stereo not given), for which the values for the selectivity ratio in [1] and in data set [6] were more than 93 and more than 28, respectively. Also, the cytotoxic concentration (CC50) at 120 h in data set [2] and in data set [11] was more than 100 µM each time. Moreover, the concentration giving a half-maximal response (EC50) in [4] turned out to be 130 nM; in [5] it was 3610 nM; in data set [9], 1070 nM.
With `O=C(CCC(CCC(=O)NC(Cc1c(-c2cc(C(=O)O)cc(C(=O)O)c2)[nH]c2ccccc12)C(=O)O)(CCC(=O)NC(Cc1c(-c2cc(C(=O)O)cc(C(=O)O)c2)[nH]c2ccccc12)C(=O)O)NC(=O)Nc1cc(C(=O)O)cc(C(=O)O)c1)NC(Cc1c(-c2cc(C(=O)O)cc(C(=O)O)c2)[nH]c2ccccc12)C(=O)O` (stereo not given), the selectivity ratio is more than 150 in [1] and more than 345 in data set [6]. Also, the 50% cytotoxic concentration (CC50) at 120 h in data set [2] was more than 60 µM; in data set [11], more than 100 µM. In addition, the figures for the EC50 in [4], in data set [5] and in [9] were 90 nM, 290 nM and 400 nM, respectively.
For the compound `CCOC(=O)c1ccc(OCCC2CCN(c3ccc(C)nn3)CC2)cc1` [PIRODAVIR], the selectivity ratio in data set [1] is more than 333. Further, the 50% cytotoxic concentration (CC50) at 120 h in data set [2] is more than 100 µM.
Regarding `CN[C@@H]1[C@H](O[C@@H]2OC[C@@H](O)[C@H](O)[C@H]2O)[C@@H](O)[C@H](O[C@H]2c3cc(C)c(C(=O)N[C@H](C)C(=O)O)c(O)c3-c3c(cc4c(c3O)C(=O)c3cc(OC)cc(O)c3C4=O)[C@@H]2O)O[C@@H]1C` [PRADIMICIN A], in data set [6], the selectivity ratio is more than 30. The cytotoxic concentration (CC50) at 120 h in data set [11] was more than 100 µM.
